Read-outs that look alike come from different tables or passages of the source.
How the values were obtained:
Hep G2 cells = assay: MTT assay, proliferation of Hep G2 cells; type: cell-based; conditions: Homo sapiens, HepG2, 48 h, read-out: In vitro cytotoxicity (IC50) Hep G2
Experimental: (§1) The in vitro antitumor activities of the synthesized compounds 7a-l and 8a-l against five human cancer cells were evaluated in MTT assays using 5-fluorouracil (5-FU) and harmine as positive controls. These cells are human hepatocellular carcinoma cells (SMMC-7721 and Hep G2), human colon cancer cell lines (HCT116), human bladder carcinoma cells (EJ), and human lung cancer cells (H460).
(§2) Hepatocellular carcinoma cells (SMMC-7721 and Hep G2), Human colon cancer cell lines (HCT116), human bladder carcinoma cells (EJ) or human lung cancer cells (H460) at 10^4 cells per well were cultured in 10% FBS DMEM in 96-well flat-bottom microplates overnight. The cells were incubated in triplicate with, or without, different concentrations of each test compound for 48 h. During the last 4 h incubation, 30 μL of tetrazolium dye (MTT) solution (5 mg mL^−1) was added to each well. The resulting MTT-formazan crystals were dissolved in 150 μL DMSO, and absorbance was measured spectrophotometrically at 570 nm using an ELISA plate reader. The inhibition induced by each test compound at the indicated concentrations was expressed as a percentage. The concentration required for 50% inhibition (IC50) was calculated using the software (GraphPadPrism Version 4.03).

EJ cells = assay: MTT assay, proliferation of EJ cells; type: cell-based; conditions: 48 h, EJ human bladder carcinoma cells, read-out: In vitro cytotoxicity (IC50) EJ
Experimental: as §1, §2

HCT116 cells = assay: MTT assay, proliferation of HCT116 cells; type: cell-based; conditions: Homo sapiens, HCT-116, 48 h, read-out: In vitro cytotoxicity (IC50) HCT116
Experimental: as §1, §2

H460 cells = assay: MTT assay, proliferation of H460 cells; type: cell-based; conditions: NCI-H460, 48 h, H460 human lung cancer cells, read-out: In vitro cytotoxicity (IC50) H460
Experimental: as §1, §2

SMMC-7721 cells = assay: MTT assay, proliferation of SMMC-7721 cells; type: cell-based, human
Experimental: as §1, §2

[1] = system: human cancer cells (SMMC-7721, Hep G2, HCT116, EJ, H460); assay: MTT assay, summary statements across several human cancer cell lines; type: cell-based; conditions: Homo sapiens; cancer cell lines tested (SMMC-7721, Hep G2, HCT116); MTT; read-out: Antitumor activities (IC50) of capped analogs
Experimental: as §1, §2

[2] = Homo sapiens, SMMC-7721, 48 h, read-out: In vitro cytotoxicity (IC50) SMMC-7721, MTT assay, 48 h, SMMC-7721 human hepatocellular carcinoma cells

| IC50 [1] [µM] | Structure (SMILES) | IC50 (Hep G2 cells) [µM] | IC50 (EJ cells) [µM] | IC50 (HCT116 cells) [µM] | IC50 (H460 cells) [µM] | IC50 (SMMC-7721 cells; [2]) [µM] | IC50 (SMMC-7721 cells; human, 48 h) [µM] | IC50 (SMMC-7721 cells; Homo sapiens, SMMC-7721, 48 h, read-out: In vitro cytotoxicity (IC50) SMMC-7721) [µM] | inhibition at 25 µM (SMMC-7721 cells; Homo sapiens, SMMC-7721, 25 μM, 48 h, MTT assay, read-out: Inhibition of SMMC-7721 cell proliferation) [%] |
| --- | --- | --- | --- | --- | --- | --- | --- | --- | --- |
| – | O=C(NCCCCCCNC(=O)c1ccccc1O)c1cc2c(cn1)[nH]c1ccccc12 [8j, N-(6-(2-Hydroxybenzamido)hexyl)-9H-pyrido[3,4-b]indole-3-carboxamide] | 17.2 | 16.5 | 18.6 | 21.5 | 13.4 | – | – | – |
| – | Cc1ccccc1C(=O)NCCCCNC(=O)c1cc2c(cn1)[nH]c1ccccc12 [7d, N-(4-(2-Methylbenzamido)butyl)-9H-pyrido[3,4-b]indole-3-carboxamide] | 19.1 | 18.4 | 21.4 | 23.2 | 24.3 | – | – | – |
| – | O=C(NCCCCCNC(=O)c1ccccc1O)c1cc2c(cn1)[nH]c1ccccc12 [8g, N-(5-(2-Hydroxybenzamido)pentyl)-9H-pyrido[3,4-b]indole-3-carboxamide] | 9.12 | 8.71 | 9.18 | 12.5 | 10.7 | – | – | – |
| – | Cc1ccccc1C(=O)NCCCCCCNC(=O)c1cc2c([nH]c3ccccc32)c(C)n1 [7k, 1-Methyl-N-(6-(2-methylbenzamido)hexyl)-9H-pyrido[3,4-b]indole-3-carboxamide] | 16.9 | 13.7 | 15.3 | 14.3 | 11.3 | – | – | – |
| – | Cc1nc(C(=O)NCCCCCCNC(=O)c2ccccc2O)cc2c1[nH]c1ccccc12 [8k, N-(6-(2-Hydroxybenzamido)hexyl)-1-methyl-9H-pyrido[3,4-b]indole-3-carboxamide] | 13.6 | 13.2 | 10.7 | 11.4 | 10.1 | – | – | – |
| – | COc1ccc(-c2nc(C(=O)NCCCNC(=O)c3ccccc3O)cc3c2[nH]c2ccccc23)cc1 [8c, N-(3-(2-Hydroxybenzamido)propyl)-1-(4-methoxyphenyl)-9H-pyrido[3,4-b]indole-3-carboxamide] | 45.8 | 38.6 | 33.2 | > 50 | 36 | – | – | – |
| – | COc1ccc(-c2nc(C(=O)NCCCCNC(=O)c3ccccc3C)cc3c2[nH]c2ccccc23)cc1 [7f, 1-(4-Methoxyphenyl)-N-(4-(2-methylbenzamido)butyl)-9H-pyrido[3,4-b]indole-3-carboxamide] | 31.2 | 29.4 | 32.6 | 38.4 | 25.6 | – | – | – |
| – | COc1ccc(-c2nc(C(=O)NCCCNC(=O)c3ccccc3C)cc3c2[nH]c2ccccc23)cc1 [7c, 1-(4-Methoxyphenyl)-N-(3-(2-methylbenzamido)propyl)-9H-pyrido[3,4-b]indole-3-carboxamide] | > 50 | > 50 | > 50 | > 50 | > 50 | – | – | – |
| – | COc1ccc(-c2nc(C(=O)NCCCCNC(=O)c3ccccc3O)cc3c2[nH]c2ccccc23)cc1 [8f, N-(4-(2-Hydroxybenzamido)butyl)-1-(4-methoxyphenyl)-9H-pyrido[3,4-b]indole-3-carboxamide] | 17.7 | 15 | 18.2 | 22.8 | 20.1 | – | – | – |
| – | Cc1ccccc1C(=O)NCCCCCNC(=O)c1cc2c([nH]c3ccccc32)c(C)n1 [7h, 1-Methyl-N-(5-(2-methylbenzamido)pentyl)-9H-pyrido[3,4-b]indole-3-carboxamide] | 11.3 | 12.1 | 15.8 | 13.2 | 12.8 | – | – | – |
| – | Cc1ccccc1C(=O)NCCCCCCNC(=O)c1cc2c(cn1)[nH]c1ccccc12 [7j, N-(6-(2-Methylbenzamido)hexyl)-9H-pyrido[3,4-b]indole-3-carboxamide] | 28 | 18.2 | 26.6 | 15.3 | 23.3 | – | – | – |
| – | Cc1ccccc1C(=O)NCCCNC(=O)c1cc2c([nH]c3ccccc32)c(C)n1 [7b, 1-Methyl-N-(3-(2-methylbenzamido)propyl)-9H-pyrido[3,4-b]indole-3-carboxamide] | 23.7 | 23.2 | 28.9 | 30.5 | 27.3 | – | – | – |
| – | Cc1ccccc1C(=O)NCCCCCNC(=O)c1cc2c(cn1)[nH]c1ccccc12 [7g, N-(5-(2-Methylbenzamido)pentyl)-9H-pyrido[3,4-b]indole-3-carboxamide] | 14.3 | 15.3 | 17.1 | 19.4 | 15.9 | – | – | – |
| – | Cc1nc(C(=O)NCCCNC(=O)c2ccccc2O)cc2c1[nH]c1ccccc12 [8b, N-(3-(2-Hydroxybenzamido)propyl)−1-methyl-9H-pyrido[3,4-b]indole-3-carboxamide] | – | 15.3 | 13.6 | 22.2 | 19.1 | – | – | – |
| – | Cc1nc(C(=O)NCCCCNC(=O)c2ccccc2O)cc2c1[nH]c1ccccc12 [8e, N-(4-(2-Hydroxybenzamido)butyl)−1-methyl-9H-pyrido[3,4-b]indole-3-carboxamide] | 9.26 | 9.01 | 9.36 | 11.9 | 7.93 | – | – | – |
| > 50 | CC(=O)NCCCCCNC(=O)c1cc2c([nH]c3ccccc32)c(C)n1 [10a, N-(5-acetamidopentyl)-1-methyl-9H-pyrido[3,4-b]indole-3-carboxamide] | > 50 | – | > 50 | – | 58.6 ± 6.7 | > 50 | – | – |
| – | COc1ccc2c(c1)[nH]c1c(C)nccc12 [harmine, reference compound] | 55.3 | – | 46.7 | – | – | – | 49.1 | – |
| – | Cc1ccccc1C(=O)NCCCNC(=O)c1cc2c(cn1)[nH]c1ccccc12 [7a, N-(3-(2-Methylbenzamido)propyl)-9H-pyrido[3,4-b]indole-3-carboxamide] | 32 | 25.3 | 36 | 31.1 | 34.7 | – | – | – |
| > 50 | Cc1nc(C(=O)NCCCCCNC(=O)c2ccccc2)cc2c1[nH]c1ccccc12 [10b, N-(5-benzamidopentyl)-1-methyl-9H-pyrido[3,4-b]indole-3-carboxamide] | > 50 | – | > 50 | – | > 100 | > 50 | – | – |
| – | COc1ccc(-c2nc(C(=O)NCCCCCNC(=O)c3ccccc3C)cc3c2[nH]c2ccccc23)cc1 [7i, 1-(4-Methoxyphenyl)-N-(5-(2-methylbenzamido)pentyl)-9H-pyrido[3,4-b]indole-3-carboxamide] | > 50 | > 50 | 45.2 | 27.5 | 38.2 | – | – | – |
| – | O=C(NCCCCNC(=O)c1ccccc1O)c1cc2c(cn1)[nH]c1ccccc12 [8d, N-(4-(2-Hydroxybenzamido)butyl)-9H-pyrido[3,4-b]indole-3-carboxamide] | 11.7 | 12.1 | 15.9 | 15.2 | 13 | – | – | – |
| – | COc1ccc(-c2nc(C(=O)NCCCCCCNC(=O)c3ccccc3C)cc3c2[nH]c2ccccc23)cc1 [7l, 1-(4-Methoxyphenyl)-N-(6-(2-methylbenzamido)hexyl)-9H-pyrido[3,4-b]indole-3-carboxamide] | – | – | > 50 | > 50 | > 50 | – | – | – |
| – | O=C(NCCCNC(=O)c1ccccc1O)c1cc2c(cn1)[nH]c1ccccc12 [8a, N-(3-(2-Hydroxybenzamido)propyl)-9H-pyrido[3,4-b]indole-3-carboxamide] | 18.9 | 15.9 | 20.1 | 25.5 | 22.6 | – | – | – |
| – | COc1ccc(-c2nc(C(=O)NCCCCCCNC(=O)c3ccccc3O)cc3c2[nH]c2ccccc23)cc1 [8l, N-(6-(2-Hydroxybenzamido)hexyl)-1-(4-methoxyphenyl)-9H-pyrido[3,4-b]indole-3-carboxamide] | 42 | – | > 50 | > 50 | > 50 | – | – | – |
| – | COc1ccc(-c2nc(C(=O)NCCCCCNC(=O)c3ccccc3O)cc3c2[nH]c2ccccc23)cc1 [8i, N-(5-(2-Hydroxybenzamido)pentyl)-1-(4-methoxyphenyl)-9H-pyrido[3,4-b]indole-3-carboxamide] | 30.8 | > 50 | > 50 | 38.5 | 46.8 | – | – | – |
| – | Cc1ccccc1C(=O)NCCCCNC(=O)c1cc2c([nH]c3ccccc32)c(C)n1 [7e, 1-Methyl-N-(4-(2-methylbenzamido)butyl)-9H-pyrido[3,4-b]indole-3-carboxamide] | 15.2 | 13.3 | 14.8 | 20.1 | 17.8 | – | – | – |
| – | O=C(O)c1ccccc1O [SA, salicylic acid] | – | – | – | – | – | – | – | ~15 |

From PMC5099944, “Design, synthesis and biological evaluation of hybrids of β-carboline and salicylic acid as potential anticancer and apoptosis inducing agents” (Scientific Reports, 2016)
